Measured values reported in ChEMBL document CHEMBL1122174, “Behavioral and serotonin receptor properties of 4-substituted derivatives of the hallucinogen 1-(2,5-dimethoxyphenyl)-2-aminopropane” (J Med Chem, 1982).
Calls of active or inactive are those of the source. The rule behind the calls is not given here.

What was measured:
[1] = system: Rattus norvegicus; assay: Number of rats responding out of 5 treated rats at a dose of 1 mg/Kg; assay type: functional
[2] = system: Rattus norvegicus; assay: Dose required to produce 50% hallucinogenic potency in rat was determined at a dose of 1 mg/kg; assay type: functional
[3] = system: Rattus norvegicus; assay: Dose required to produce 50% hallucinogenic potency in rat was determined at a dose of 4 mg/kg; Disruption behavior; assay type: functional, organism-based; design: dose 4 mg/kg
[4] = system: Rattus norvegicus; assay: Dose required to produce 50% hallucinogenic potency in rat was determined at a dose of 0.5 mg/kg; assay type: functional
[5] = system: Rattus norvegicus; assay: Number of rats responding out of 5 treated rats at a dose of 1.5 mg/Kg; assay type: functional
[6] = system: Rattus norvegicus; assay: Number of rats responding out of 5 treated rats at a dose of 0.5 mg/Kg; assay type: functional
[7] = organism: Homo sapiens; assay: Hallucinogenic potency was determined in humans; assay type: functional
[8] = system: Rattus norvegicus; assay: Dose required to produce 50% hallucinogenic potency in rat was determined at a dose of 3.0 mg/kg; assay type: functional
[9] = system: Rattus norvegicus; assay: Dose required to produce 50% hallucinogenic potency in rat was determined at a dose of 0.125 mg/kg; assay type: functional
[10] = system: Rattus norvegicus; assay: Dose required to produce 50% hallucinogenic potency in rat was determined at a dose of 0.25 mg/kg; assay type: functional
[11] = organism: Rattus norvegicus; assay: Dose at which the rats perform 50% appropriate drug -lever responding was determined; assay type: functional
[12] = system: Rattus norvegicus; assay: Number of rats responding out of 5 treated rats at a dose of 0.25 mg/Kg; assay type: functional
[13] = system: Rattus norvegicus; assay: Number of rats responding out of 5 treated rats at a dose of 0.125 mg/Kg; assay type: functional
[14] = target: Serotonin (5-HT) receptor; assay: Binding affinity at rat 5-hydroxytryptamine receptor.; assay type: protein assay
[15] = system: Rattus norvegicus; assay: Dose required to produce 50% hallucinogenic potency in rat was determined at a dose of 1.5 mg/kg; assay type: functional
[16] = system: Rattus norvegicus; assay: Number of rats responding out of 5 treated rats at a dose of 0.75 mg/Kg; assay type: functional
[17] = system: Rattus norvegicus; assay: Dose required to produce 50% hallucinogenic potency in rat was determined at a dose of 0.75 mg/kg; assay type: functional
[18] = system: Rattus norvegicus; assay: Number of rats responding out of 5 treated rats at a dose of 0.15 mg/Kg; assay type: functional
[19] = system: Rattus norvegicus; assay: Number of rats responding out of 5 treated rats at a dose of 0.20 mg/Kg; assay type: functional
[20] = system: Rattus norvegicus; assay: Number of rats responding out of 5 treated rats at a dose of 0.10 mg/Kg; assay type: functional
[21] = system: Rattus norvegicus; assay: Dose required to produce 50% hallucinogenic potency in rat was determined at a dose of 0.15 mg/kg; assay type: functional
[22] = system: Rattus norvegicus; assay: Dose required to produce 50% hallucinogenic potency in rat was determined at a dose of 0.1 mg/kg; assay type: functional
[23] = system: Rattus norvegicus; assay: Dose required to produce 50% hallucinogenic potency in rat was determined at a dose of 0.2 mg/kg; assay type: functional

| Compound | No. of animals [1] | DOM [2] [%] | DOM [4] [%] | No. of animals [5] | No. of animals [6] | HHP [7] [mg] | ED50 [11] [mg/kg] | pA2 [14] | No. of animals [16] | DOM [17] [%] | further results |
| --- | --- | --- | --- | --- | --- | --- | --- | --- | --- | --- | --- |
| COc1ccc(C[C@@H](C)N)cc1 | 3 | 20 | 18 | 1 | 5 |  |  |  |  |  | DOM [3]: inactive |
| COc1cc(CC(C)N)c(OC)cc1C (racemic) [DOM] |  |  |  |  |  | 2 |  |  |  |  | ED50 [8]: 0.44 mg/kg |
| CCc1cc(OC)c(CC(C)N)cc1OC (racemic) |  |  | 99 |  | 5 | 1.5 | 0.23 |  |  |  | DOM [9]: 10%; DOM [10]: 44%; No. of animals [12]: 5; No. of animals [13]: 5 |
| COc1cc([N+](=O)[O-])c(OC)cc1CC(C)N (racemic) | 4 | 55 | 32 | 5 | 5 |  | 0.76 | 7.07 |  |  | DOM [15]: 87% |
| COc1cc(C[C@H](C)N)c(OC)cc1Br |  |  | 20 | 5 | 5 | 4 | 0.81 |  | 5 | 35 | DOM [15]: 96% |
| COc1ccc(OC)c(CC(C)N)c1 (racemic) |  |  |  |  |  | 50 |  |  |  |  | ED50 [8]: 5.51 mg/kg |
| COc1cc([N+](=O)[O-])c(OC)cc1C[C@@H](C)N | 5 | 93 | 44 |  | 5 |  | 0.57 | 7.49 | 5 | 61 |  |
| COc1ccc(CC(C)N)cc1 (racemic) [PARA-METHOXYAMPHETAMINE] | 4 | 15 | 13 | 2 | 5 |  |  |  |  |  | DOM [3]: inactive |
| COc1cc(C[C@@H](C)N)c(OC)cc1Br |  |  |  |  |  | 0.4 | 0.1 |  |  |  | No. of animals [18]: 5; No. of animals [19]: 5; No. of animals [20]: 5; DOM [21]: 79%; DOM [22]: 47%; DOM [23]: 91% |
| COc1cc(CC(C)N)c(OC)cc1I (racemic) | 5 | 93 | 41 |  | 5 | 0.8 | 0.42 | 7.49 | 5 | 80 | DOM [10]: 31%; No. of animals [12]: 5 |
